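Method: 48-hour compound exposure of cells in 96-well plates, five concentrations, linear interpolation of endpoints. TGI: concentration producing complete growth inhibition.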
What was measured:
Test in all cases: NCI anticancer screen, dose series, 48 h
[1] = tested on: NCI-H23 lung
[2] = tested on: HCT-116 colon
[3] = tested on: BT-549 breast
[4] = tested on: MDA-MB-435
[5] = tested on: LOX IMVI melanoma
[6] = tested on: SK-OV-3 ovarian
[7] = tested on: UACC-62 melanoma
[8] = tested on: M14 melanoma
[9] = tested on: DU-145 prostate
[10] = tested on: COLO 205 colon

SMILES | TGI [1] [µM] | TGI [2] [µM] | TGI [3] [µM] | TGI [4] [µM] | TGI [5] [µM] | TGI [6] [µM] | TGI [7] [µM] | TGI [8] [µM] | TGI [9] [µM] | TGI [10] [µM]
CCC(C)C1(O)OC2CC3(C)OC(=CC3=O)/C(C)=C\C3OC(=O)C1(C)C32 (stereo not given) | 24.7 | 47.2 | 12.8 | > 100 | 49.4 | > 100 | 35.3 | > 100 | 17 | 21
COc1cc2c(cc1Cl)n([O-])c(C#N)c(N1CCN(c3ccc([N+](=O)[O-])cc3)CC1)[n+]2=O | 91.3 | > 100 | > 100 | > 100 | 73.6 | > 100 | > 72.9 | > 100 | > 100 | > 100
O=[N+]([O-])c1ccc(Cl)cc1C=NC12CC3CC(CC(C3)C1)C2 | 98.1 | 62.9 | > 100 | > 100 | > 70.3 | > 100 | > 100 | > 100 | > 100 | 97.5
Nc1nc2cc(CNc3ccc(C(=O)NC(CCC(=O)O)C(=O)O)cc3)ccc2nc1-c1ccccc1 (stereo not given) | > 10 | > 10 | > 10 | > 10 | > 10 | > 10 | > 10 | > 10 | > 10 | > 10
O=C(C#Cc1cn(C2CC(O)C(CO)O2)c(=O)[nH]c1=O)c1ccccc1 (stereo not given) | > 100 | > 100 | > 100 | > 100 | > 100 | > 100 | > 100 | > 100 | > 100 | 65.7
CN1CC2CC(C1)c1cccc(=O)n1C2 (stereo not given) | > 100 | > 100 | > 100 | > 100 | > 100 | > 100 | > 100 | > 100 | > 100 | > 100
COc1cc(-c2nc3nc(N4CCN(C)CC4)ccc3[nH]2)c(OC)c2[nH]c(COC(C)=O)nc12 | > 100 | 58.6 | > 100 | > 100 | 73.6 | 82.1 | > 100 | 34.4 | > 100 | > 100
Nc1c(S(=O)(=O)O)cc(Nc2cccc(S(=O)(=O)/C=C/S(=O)(=O)O)c2)c2c1C(=O)c1ccccc1C2=O | > 100 | > 100 | > 100 | > 100 | > 100 | > 100 | > 100 | > 100 | > 100 | > 100
CC(C)(C)c1cc(C2COC(=O)COCC(=O)OCCOCCOCCO2)cc(C(C)(C)C)c1O (stereo not given) | > 100 | > 100 | > 100 | 43 | > 80.2 | 55.9 | > 69.1 | 41.3 | 41.7 | > 100
COc1ccc2c(c1)-c1oc3ccccc3c(=O)c1CO2 | > 100 | > 100 | 96.8 | > 100 | 44.5 | > 100 | > 100 | > 100 | > 100 | > 100
CC(=O)NC1=CC(=O)c2cc(C)cc(O)c2C1=O | 5.21 | 16.3 | 18.9 | 1.96 | 7.74 | > 83.5 | 4.71 | 3.53 | 14.1 | 13.3
CN(C)CCOC1(CC2CCCCC2)CCC(C(C)(C)C)CC1 (stereo not given) | 21.8 | 14.7 | 20.4 | 13.8 | 6.79 | 24.7 | 20.3 | 4.61 | 19.6 | 6.13
NC(=O)NCCCC(NC(=O)OCCCCCn1ccc(=O)[nH]c1=O)C(=O)O (stereo not given) | > 100 | > 100 | > 100 | > 100 | > 100 | > 100 | > 100 | > 100 | > 100 | > 100
CC1CCC2(CC1)N=C1CCC(C)CC1C1(CCC(C)CC1)N2 (stereo not given) | > 100 | > 100 | > 100 | > 100 | > 100 | > 100 | > 100 | > 100 | > 100 | > 100
